Reference: patent publication US20090298745A1, “Treatment of Diabetes with Glycogen Phosphorylase Inhibitors” (priority 2004, published 2009)

System: Diabetic ZDF male rats
Test: In vivo animal model to mimic human night time dosing
Set-up: species or system rat
Details: 30 mg/kg po via gavage in 10% Gelucire 44/14; 360 min after dosing at 14 weeks old, from start of dosing (T=0); p=0.019 versus vehicle controls
Procedure: Diabetic ZDF male rats (Charles River) were allowed free access to tap water and enriched pelleted chow diet (M-Z Ereich; Art. No. V1185-000; Ssniff R Spezialdiäten GmbH, D-59494, Soest Germany) ad-libitum for 4 weeks until they were 8 weeks old. The animals were housed under a 16 hr/8 hr:dark/light phase (lights on 09:00). As the animals progressed to the diabetic state, weekly blood glucose and insulin measurement were made at the end of the light period (17:00 h) and a blood glucose measurement made at the end of the active (dark) cycle (08:30-09:00 h). When the animals had reached 8 weeks of age, they were trained on a meal paradigm, by removal of food during the light period (09:00-17:00 h), which was maintained for the remainder of the study. After the animals had reached 12 weeks of age, and their diabetic status had been confirmed using the fasted glucose measurements (>8 mM), the animals were divided into groups. […] Blood glucose and insulin concentrations were measured by the glucose oxidase method (Super G Glucose analyzer; Dr. Müller Gerätebau, Freital, Germany) and Elisa technique, respectively, at T=−45 min, before dosing (08:15 h) and then at T=0 min ([…]), T=45 min (09:45 h), T=90 min (10:30 h), T=150 min (11:20 h) and T=360 min (15:00 h) after each weekly successive test compound dose.

`O=C(N[C@@H](Cc1ccc(F)cc1)C(=O)N1CCC(O)CC1)c1cc2cc(Cl)ncc2[nH]1` [Example 3, 5-chloro-1H-pyrrolo[2,3-c]pyridine-2-carboxylic acid [1-(S)-(4-fluorobenzyl)-2-(4-hydroxypiperidin-1-yl)-2-oxoethyl]amide] was tested. Which “reduction in blood glucose concentration (mean+/−S.D.)” value did it give?
The value was 6.28 ± 2.47 mM.
